Reference: patent US20170058314A1, “NOVEL METHODOLOGY FOR IDENTIFYING ANTI-PERSISTER ACTIVITY AND ANTIMICROBIAL SUSCEPTIBILITY FOR BORRELIA BURGDORFERI AND OTHER BACTERIA” (priority 2014, published 2017)
Where a name gives a salt, the structure may show the parent alone.

Experiments:
[1] = tested on: stationary phase B. burgdorferi persisters (strain B31); assay: SYBR Green I/PI viability assay (plate reader), FDA-approved drug library screen; details: for Ratio of Green/Red fluorescence, Primary screening / Ratio of Green/Red fluorescence, Rescreening (first column) / Ratio of Green/Red fluorescence, Rescreening (second column): 7 days, stationary phase; for viability at 50 µM: Borreliella burgdorferi, 168 h, read-out: Residual viable cells (regression equation, SYBR Green I/PI assay)
[2] = tested on: round body form of B. burgdorferi; assay: SYBR Green I/PI assay on amoxicillin-induced round body form; details: for viability at 50 µM: Borreliella burgdorferi, 168 h, read-out: Residual viable cells (SYBR Green I/PI assay); for Ratios of green/red fluorescence, Primary screening / Ratios of green/red fluorescence, Rescreening (first column) / Ratios of green/red fluorescence, Rescreening (second column): round body form, 50 μM, 7 days

Molecule | Ratio of Green/Red fluorescence, Primary screening ([1]; 50 μM) | Ratio of Green/Red fluorescence, Rescreening (first column) ([1]; 50 μM) | Ratio of Green/Red fluorescence, Rescreening (second column) ([1]; 50 μM) | viability at 50 µM [1] [%] | viability at 50 µM [2] [%] | Ratios of green/red fluorescence, Primary screening [2] | Ratios of green/red fluorescence, Rescreening (first column) [2] | Ratios of green/red fluorescence, Rescreening (second column) [2] | Residual viable cells (regression equation, SYBR Green I/PI assay) ([1]; 50 μM, 7-day old stationary phase cells treated for 7 days) [%] | activity against stationary phase B. burgdorferi (words; SYBR Green I/PI assay) ([1]; FDA drug screen)
Collistin | 7.15 | 7.26 | 7.23 | – | – | – | – | – | – | –
CO/N=C(\C(=O)N[C@@H]1C(=O)N2C(C(=O)[O-])=C(C[N+]3(C)CCCC3)CS[C@H]12)c1csc(N)n1 [Cefepime] | 6.67 | 7.16 | 6.45 | 44 | – | – | – | – | – | –
Cn1nnnc1SCC1=C(C(=O)O)N2C(=O)[C@@H](NC(=O)[C@H](O)c3ccccc3)[C@H]2SC1 [Cefamandole] | 6.71 | 7.73 | 6.52 | 50 | – | – | – | – | – | –
O=[N+]([O-])c1ccc(/C=N/O)o1 [Nifuroxime] | – | – | – | – | 30 | 6.10 | 6.32 | 6.22 | – | –
COc1c(N2C[C@@H]3CCCN[C@@H]3C2)c(F)cc2c(=O)c(C(=O)O)cn(C3CC3)c12 [moxifloxacin] | – | – | – | – | 49 | – | – | – | – | –
C[C@@H]1[C@H](O)[C@@H](C)/C=C/C=C/C=C/C=C/C=C/C=C/C=C/[C@H](O[C@@H]2O[C@H](C)[C@@H](O)[C@H](N)[C@@H]2O)C[C@@H]2O[C@](O)(C[C@@H](O)C[C@@H](O)[C@H](O)CC[C@@H](O)C[C@@H](O)CC(=O)O[C@H]1C)C[C@H](O)[C@H]2C(=O)O [Amphotericin B] | 7.14 | 6.88 | 6.87 | – | – | – | – | – | 50 | –
Cc1noc(NS(=O)(=O)c2ccc(N)cc2)c1C [Sulfisoxazole] | – | – | – | – | 33 | 6.53 | 6.15 | 6.18 | – | effective
C=CC1=C(C(=O)O)N2C(=O)[C@@H](NC(=O)/C(=N\O)c3csc(N)n3)[C@H]2SC1 [Cefdinir] | 6.88 | 7.51 | 6.29 | 48 | – | – | – | – | – | –
CCN(CC)Cc1cc(Nc2ccnc3cc(Cl)ccc23)ccc1O [Amodiaquin] | 6.79 | 6.44 | 6.85 | 45 | – | – | – | – | – | –
CN[C@@H]1[C@@H](O)[C@@H](O[C@@H]2[C@@H](O)[C@H](O[C@H]3OC(CN)=CC[C@H]3N)[C@@H](N)C[C@H]2N)OC[C@]1(C)O [Sisomicin] | – | – | – | – | 33 | 6.27 | 6.12 | 6.45 | – | –
C=CC1=C(C(=O)O)N2C(=O)[C@@H](NC(=O)/C(=N\OCC(=O)O)c3csc(N)n3)[C@H]2SC1 [Cefixime] | – | – | – | – | 34 | 6.41 | 6.21 | 6.27 | – | –
CC(=O)NS(=O)(=O)c1ccc(N)cc1 [Sulfacetamide] | – | – | – | – | 29 | 6.26 | 6.14 | 6.20 | – | –
NCc1ccccc1CC(=O)N[C@@H]1C(=O)N2C(C(=O)O)=C(CSc3nnnn3CC(=O)O)CS[C@H]12 [Ceforanide] | 6.89 | 7.49 | 6.33 | 48 | – | – | – | – | – | –
C[C@@H]1O[C@@H]1P(=O)(O)O [Fosfomycin] | – | – | – | – | 31 | 6.39 | 6.12 | 6.16 | – | –
CC1(C)S[C@@H]2[C@H](NC(=O)[C@H](C(=O)O)c3ccsc3)C(=O)N2[C@H]1C(=O)O [Ticarcillin] | 6.82 | 6.72 | 6.93 | 46 | – | – | – | – | – | –
C=C[C@H]1C[N@@]2CC[C@H]1C[C@H]2[C@H](O)c1ccnc2ccc(OC)cc12 [Quinine hydrobromide] | 7.00 | 6.85 | 6.88 | 50 | – | – | – | – | – | –
